Assay results from patent publication US20240226107A1, “UBIQUITIN-SPECIFIC PROTEASE 1 (USP1) INHIBITOR” (SIMCERE ZAIMING PHARMACEUTICAL CO., LTD., priority 2021, published 2024).
In brackets after ≈: the same amount, converted by molar mass.

Tests used:
[1] = Solubility (PBS pH 7.4) of compounds from DMSO solution; type: physicochemical; details: aqueous buffer, kinetic from dmso stock, 10 mM DMSO solution into PBS pH 7.4, 25° C., read-out: Calculated solubility
Procedure: The solubility (PBS pH 7.4) of a compound to be tested was determined by LC/MS/MS. 6 μL of 10 mM DMSO solution of the compound to be tested was mixed with 194 μL of DMSO to prepare 300 μM compound solution. In 490 μL of water and acetonitrile (1:1) containing an internal standard, 5 μL of the solution and 5 μL of PBS pH 7.4 solution were mixed to prepare 3 μM standard concentration solution of the sample to be tested. The dilution factor of the standard solution can be adjusted according to the strength of response signals in LC/MS.
To 485 μL of PBS pH 7.4 solution, 15 μL of 10 mM DMSO solution of the compound to be tested was added. […] After shaking, the stir bar was removed, and the sample was transferred to a filter plate and filtered using a vacuum manifold. In 490 μL of water and acetonitrile (1:1) containing an internal standard, 5 μL of filtrate and 5 μL of PBS pH 7.4 solution were mixed to prepare a solution to be tested. The dilution factor can be adjusted according to the solubility value and the strength of response signals in LC/MS.
The resulting samples were determined by LC/MS/MS. The sample solubility was calculated from peak areas of the solution of the compound to be tested and the standard concentration solution, according to the following equation:
[formula] • [Sample] is the solubility of the sample to be tested; • Area ratiosample is the ratio of the peak area of sample in the sample to be tested to the peak area of the internal standard; • INJ VOL STD is the injection volume of the standard concentration solution; • DFsample is the dilution factor of the solution of the sample to be tested; • [STD] is the concentration of the standard concentration solution; • INJ VOLsample is the injection volume of the solution of the sample to be tested; and • Area ratio STD is the ratio of the peak area of sample in the standard concentration solution to the peak area of the internal standard.

[2] = biological target: USP1 (Recombinant Human His6-USP1/His6-UAF1 Complex Protein) (Homo sapiens (Human), UniProt O94782); assay: In vitro activity assay for USP1 (Ub-CHOP2-Reporter deubiquitination assay); type: biochemical; details: 0.5 h incubation at room temperature, read-out: In vitro inhibitory activity of USP1 IC50
Summary of the method: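 His6-USP1/His6-UAF1 complex was mixed with compound in 20 mM Tris-HCl pH 8.0, 2 mM CaCl2, 2 mM β-mercaptoethanol and 0.05% CHAPS. Ub-CHOP2 reporter system plus substrate was added, then incubated 0.5 h at room temperature. IC50 came from a four-parameter logistic fit.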

[3] = Metabolic stability in vitro in rat hepatocytes; type: in vitro ADME; details: read-out: Intrinsic clearance
Procedure: The concentration of each compound in the reaction system was measured by LC/MS/MS to calculate the intrinsic clearance of the compounds to be tested, and evaluate the metabolic stability in vitro in rat hepatocytes.
To the incubation plate, 198 μL of 0.5×10^6 cells/mL rat hepatocyte mixture and 2.0 μL of 100 μM compound to be tested or positive control were added to initiate reaction. Incubation was performed at 900 rpm at 37° C. […] Then the mixture was vortex-mixed for 5 min. […] Then 100 μL of supernatant of each compound was transferred to a 96-well sample plate, and 100 μL of purified water was added to dilute the sample. The resulting samples were quantified by ion chromatograms. The residual rate was calculated from peak areas of the compounds to be tested or the positive control. The slope k was determined using Microsoft Excel by linear regression of natural logarithm of the residual rate to the incubation time. The intrinsic clearance (in vitro CLint, μL/min/10^6 cells) was calculated from the slope value according to the following equation: […]
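For GI50 in this document: MDA-MB-436 proliferation over 7 days with compound, viability read as ATP luminescence (CellTiter-Glo), inhibition relative to DMSO-only wells, day 0 signal as background, GI50 from four-parameter fit.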

Chain of USP1 (Recombinant Human His6-USP1/His6-UAF1 Complex Protein) (O94782 whole entry): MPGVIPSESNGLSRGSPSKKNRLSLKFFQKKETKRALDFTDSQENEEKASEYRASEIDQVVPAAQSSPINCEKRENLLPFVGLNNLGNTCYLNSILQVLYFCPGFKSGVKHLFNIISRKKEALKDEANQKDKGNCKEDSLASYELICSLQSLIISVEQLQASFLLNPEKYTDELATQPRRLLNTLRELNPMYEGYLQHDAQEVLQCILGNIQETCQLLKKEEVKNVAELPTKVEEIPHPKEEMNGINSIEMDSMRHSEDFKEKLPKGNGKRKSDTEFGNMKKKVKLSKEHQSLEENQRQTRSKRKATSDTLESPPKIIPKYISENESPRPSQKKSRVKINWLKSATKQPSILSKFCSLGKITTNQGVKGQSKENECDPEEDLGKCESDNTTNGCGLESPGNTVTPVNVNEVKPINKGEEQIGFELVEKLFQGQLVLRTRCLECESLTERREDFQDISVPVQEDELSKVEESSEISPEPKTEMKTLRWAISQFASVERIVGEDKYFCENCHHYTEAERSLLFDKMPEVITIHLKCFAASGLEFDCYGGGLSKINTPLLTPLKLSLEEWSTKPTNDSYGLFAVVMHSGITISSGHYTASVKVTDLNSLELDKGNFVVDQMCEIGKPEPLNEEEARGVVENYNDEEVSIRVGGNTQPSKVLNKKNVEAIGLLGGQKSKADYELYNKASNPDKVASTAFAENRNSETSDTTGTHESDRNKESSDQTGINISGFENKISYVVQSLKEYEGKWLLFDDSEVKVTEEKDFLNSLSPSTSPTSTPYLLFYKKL
Chain of USP1 (Recombinant Human His6-USP1/His6-UAF1 Complex Protein) (Q8TAF3 whole entry partner): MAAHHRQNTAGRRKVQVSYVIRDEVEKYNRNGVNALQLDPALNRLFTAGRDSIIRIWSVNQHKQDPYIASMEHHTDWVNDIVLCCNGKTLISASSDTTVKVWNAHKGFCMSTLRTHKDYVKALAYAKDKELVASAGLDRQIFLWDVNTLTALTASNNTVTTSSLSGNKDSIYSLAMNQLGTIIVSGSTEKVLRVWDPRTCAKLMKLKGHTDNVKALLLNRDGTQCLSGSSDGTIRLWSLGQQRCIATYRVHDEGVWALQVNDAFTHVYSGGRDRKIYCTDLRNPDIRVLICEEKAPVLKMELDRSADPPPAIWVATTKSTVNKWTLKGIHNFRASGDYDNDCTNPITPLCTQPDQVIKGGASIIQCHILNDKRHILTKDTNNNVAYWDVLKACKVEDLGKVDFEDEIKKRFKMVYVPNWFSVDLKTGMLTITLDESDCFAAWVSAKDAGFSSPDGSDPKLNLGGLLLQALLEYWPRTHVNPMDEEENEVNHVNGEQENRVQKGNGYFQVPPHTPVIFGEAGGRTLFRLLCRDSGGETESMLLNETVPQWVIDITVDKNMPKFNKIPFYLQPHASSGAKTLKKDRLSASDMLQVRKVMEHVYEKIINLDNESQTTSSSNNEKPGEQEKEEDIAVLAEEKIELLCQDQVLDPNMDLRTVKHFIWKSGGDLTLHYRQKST
Procedure for MDA-MB-436 cells: Assay based on CellTiter-Glo luminescent cell viability assay system.
The assay kit (CellTiter-Glo® Luminescent Cell Viability Assay) was purchased from Promega, with Cat. No. of G7573, and was stored at −30° C. after subpackage. The kit is a homogeneous assay method for assaying the number of viable cells in a culture based on quantitative determination of ATP. The kit produces a luminescence signal proportional to the amount of ATP present, and the amount of ATP is directly proportional to the number of cells in the culture.
The cultured cells were trypsinized, collected and centrifuged, then resuspended at an adjusted concentration in a culture solution (DMEM+10% FBS), and cultured overnight on a 384-well plate (400 cells/20 μl/well) in a cell incubator with 5% CO2 at 37° C. An ECHO instrument was used to added the compound and pure DMSO onto each well of the 384-well plate. The total volume of the compound and DMSO is 100 nL, and the instrument obtains gradient diluted sample concentrations through different ratios. To each well, 30 μL of culture solution was added, and after mixing by centrifugal oscillation and re-centrifugation, the cells were cultured in a cell incubator for 7 days (one column of cells was subjected to CTG assay on the day of dosing). After day 7, 25 μL of CTG assay solution was added to each well, and after mixing by centrifugal oscillation and re-centrifugation, the cells were placed at room temperature away from light for 10 min. In terms of chemiluminescence signals, an Envision plate reader (PerkinElmer, emission wavelength: 400-700 nm) was used to measure a signal in each well. The chemiluminescence value [RLU]cpd on day 7 was obtained for the treatment group, the chemiluminescence value [RLU]cell on day 7 was obtained for the non-treatment group (given DMSO only), and the chemiluminescence value [RLU]background on day 0 was obtained for the parallel non-treatment group (given DMSO only) by CTG assay on day 0. […] In the following equation, x represents the concentration of the compound in a logarithmic form; and F(x) represents an effect value (inhibition rate of proliferation at the concentration): F(x)=(A+((B−A)/(1+((C/x)^D)))). A, B, C, and D are four parameters.

## COc1ncnc(C2CC2)c1-c1ncc2c(n1)N(Cc1ccc(-c3nc(C(F)(F)F)cn3C)cn1)CCO2 [Compound 16]
MDA-MB-436 cells
  GI50: 1080 nM
[1]
  solubility at 2 h: 284 µM (≈ 149 µg/mL)

## COc1ncnc(C2CC2)c1-c1ncc2c(n1)N(Cc1ccc(-c3nc(C(F)(F)F)cn3C)cc1)CC(=O)N2C1CC1 [Compound 24, 2-(4-cyclopropyl-6-methoxypyrimidin-5-yl)-5-cyclopropyl-8-(4-(1-methyl-4-(trifluoromethyl)-1H-imidazol-2-yl)benzyl)-7,8-dihydropteridin-6(5H)-one]
MDA-MB-436 cells
  GI50: 86.2 nM
[1]
  solubility at 2 h: 228 µM (≈ 131 µg/mL)
[2]
  IC50: 23.6 nM

## COc1ncnc(C2CC2)c1-c1ncc2c(n1)N(Cc1ccc(-c3nc(C(F)(F)F)cn3C)cc1)C(C)C(=O)N2C (stereo not drawn) [Compound 26, 2-(4-cyclopropyl-6-methoxypyrimidin-5-yl)-5,7-dimethyl-8-(4-(1-methyl-4-(trifluoromethyl)-1H-imidazol-2-yl)benzyl)-7,8-dihydropteridin-6(5H)-one]
MDA-MB-436 cells
  GI50: 41.1 nM
[3]
  hepatocyte CLint at 1 μM: 4.2 µL/min/1e6 cells
[1]
  solubility at 2 h: 115 µM (≈ 64.9 µg/mL)
[2]
  IC50: 41.4 nM

## COc1ncnc(C2CC2)c1-c1ncc2c(n1)N(Cc1ccc(-c3nc(C(F)(F)F)cn3C(F)F)cc1)CC(=O)N2C [Compound 28, 2(4-cyclopropyl-6-methoxypyrimidin-5-yl)-8-((4-(1-(difluoromethyl)-4-(trifluoromethyl)-1H-imidazol-2-yl)phenyl)methyl)-5-methyl-7,8-dihydropteridin-6(5H)-one]
MDA-MB-436 cells
  GI50: 51.1 nM
[3]
  hepatocyte CLint at 1 μM: 6.3 µL/min/1e6 cells
[1]
  solubility at 2 h: 73 µM (≈ 42.8 µg/mL)
[2]
  IC50: 33.7 nM

## COc1ncnc(C2CC2)c1-c1ncc2c(n1)N(CC1CCN(c3nc(C(F)(F)F)cn3C)CC1)CCO2 [Compound 30, 2-(4-cyclopropyl-6-methoxypyrimidin-5-yl)-8-((1-(1-methyl-4-(trifluoromethyl)-1H-imidazol-2-yl)piperidin-4-yl)methyl)-7,8-dihydro-6H-pyrimido[5,4-b][1,4]oxazine]
MDA-MB-436 cells
  GI50: 161 nM
[1]
  solubility at 2 h: 225 µM (≈ 119 µg/mL)
[2]
  IC50: 44.7 nM

## CCN1C(=O)CN(Cc2ccc(-c3nc(C(F)(F)F)cn3C)cc2)c2nc(-c3c(OC)ncnc3C3CC3)ncc21 [Compound 33, 2-(4-cyclopropyl-6-methoxypyrimidin-5-yl)-5-ethyl-8-(4-(1-methyl-4-(trifluoromethyl)-1H-imidazol-2-yl)benzyl)-7,8-dihydropteridin-6(5H)-one]
MDA-MB-436 cells
  GI50: 53.8 nM
[3]
  hepatocyte CLint at 1 μM: 4.3 µL/min/1e6 cells
[2]
  IC50: 31.3 nM

## CCn1cc(C(F)(F)F)nc1-c1ccc(CN2CC(=O)N(C)c3cnc(-c4c(OC)ncnc4C4CC4)nc32)cc1 [Compound 40, 2-(4-cyclopropyl-6-methoxypyrimidin-5-yl)-5-methyl-8-(4-(1-ethyl-4-(trifluoromethyl)-1H-imidazol-2-yl)benzyl)-7,8-dihydropteridin-6(5H)-one]
MDA-MB-436 cells
  GI50: 22.6 nM
[1]
  solubility at 2 h: 122 µM (≈ 68.9 µg/mL)
[2]
  IC50: 26.9 nM

## COc1ncnc(C2CC2)c1-c1ncc2c(n1)N(Cc1ccc(-c3nc(C(F)(F)F)cn3C(C)C)cc1)CC(=O)N2C [Compound 41, 2-(4-cyclopropyl-6-methoxypyrimidin-5-yl)-5-methyl-8-(4-(1-isopropyl-4-(trifluoromethyl)-1H-imidazol-2-yl)benzyl)-7,8-dihydropteridin-6(5H)-one]
MDA-MB-436 cells
  GI50: 28.4 nM
[1]
  solubility at 2 h: 88 µM (≈ 50.9 µg/mL)
[2]
  IC50: 19 nM

## CCN1C(=O)CN(Cc2ccc3c(c2)CCCn2cc(C(F)(F)F)nc2-3)c2nc(-c3c(OC)ncnc3C3CC3)ncc21 [Compound 46, 2-(4-cyclopropyl-6-methoxypyrimidin-5-yl)-5-ethyl-8-((2-(trifluoromethyl)-6,7-dihydro-5H-benzo[c]imidazo[1,2-a]azepin-9-yl)methyl)-7,8-dihydropteridin-6(5H)-one]
[1]
  solubility at 2 h: 50 µM (≈ 29.5 µg/mL)

## COc1ncnc(C2CC2)c1-c1ncc2c(n1)N(Cc1cc(F)c(-c3nc(C(F)(F)F)cn3C)c(F)c1)CC(=O)N2C [Compound 66, 2-(4-cyclopropyl-6-methoxypyrimidin-5-yl)-5-methyl-8-(3,5-difluoro-4-(1-methyl-4-(trifluoromethyl)-1H-imidazol-2-yl)benzyl)-7,8-dihydropteridin-6(5H)-one]
MDA-MB-436 cells
  GI50: 29.6 nM
[1]
  solubility at 2 h: 115 µM (≈ 67.5 µg/mL)
[2]
  IC50: 27.2 nM

## COc1ncnc(C2CC2)c1-c1ncc2c(n1)N(Cc1ccc(-c3nc(C(F)(F)F)cn3C)c(F)c1)C(C)C(=O)N2C (stereo not drawn) [Compound 70, 2-(4-cyclopropyl-6-methoxypyrimidin-5-yl)-8-(3-fluoro-4-(1-methyl-4-(trifluoromethyl)-1H-imidazol-2-yl)benzyl)-5,7-dimethyl-7,8-dihydropteridin-6(5H)-one]
MDA-MB-436 cells
  GI50: 93.1 nM
[1]
  solubility at 2 h: 98 µM (≈ 57.1 µg/mL)
[2]
  IC50: 37.9 nM

## COc1ncnc(C2CC2)c1-c1ncc2c(n1)N(Cc1ccc3c(c1)C(C)CCn1cc(C(F)(F)F)nc1-3)CC(=O)N2C (stereo not drawn) [Compound 79, 2-(4-cyclopropyl-6-methoxypyrimidin-5-yl)-5-methyl-8-((7-methyl-2-(trifluoromethyl)-6,7-dihydro-5H-benzo[c]imidazo[1,2-a]azepin-9-yl)methyl)-7,8-dihydropteridin-6(5H)-one]
MDA-MB-436 cells
  GI50: 80.2 nM
[2]
  IC50: 95.2 nM

## COc1ncnc(C2CC2)c1-c1ncc2c(n1)N(Cc1ccc(-c3nc(C(F)(F)F)cn3C)cc1)C(=O)OC2 [Compound 80, 7-(4-cyclopropyl-6-methoxypyrimidin-5-yl)-1-(4-(1-methyl-4-(trifluoromethyl)-1H-imidazol-2-yl)benzyl)-1,4-dihydro-2H-pyrimido[4,5-d][1,3]oxazin-2-one]
[1]
  solubility at 2 h: 72 µM (≈ 38.7 µg/mL)
[2]
  IC50: 11.7 nM

## COc1ncnc(C2CC2)c1-c1ncc2c(n1)N(Cc1ccc(-c3nc(C(F)(F)F)cn3C)cc1)C(=O)OC2C (stereo not drawn) [Compound 81, 7-(4-cyclopropyl-6-methoxypyrimidin-5-yl)-4-methyl-1-(4-(1-methyl-4-(trifluoromethyl)-1H-imidazol-2-yl)benzyl)-1,4-dihydro-2H-pyrimido[4,5-d][1,3]oxazin-2-one]
MDA-MB-436 cells
  GI50: 69.3 nM
[2]
  IC50: 27.2 nM

## COc1ncnc(C2CC2)c1-c1ncc2c(n1)N(Cc1ccc3c(c1)CCCn1cc(C(F)(F)F)nc1-3)CC(=S)N2C [Compound 82, 2-(4-cyclopropyl-6-methoxypyrimidin-5-yl)-5-methyl-8-((2-(trifluoromethyl)-6,7-dihydro-5H-benzo[c]imidazo[1,2-a]azepin-9-yl)methyl)-7,8-dihydropteridine-6(5H)-thione]
MDA-MB-436 cells
  GI50: 35.8 nM
[2]
  IC50: 59.3 nM

## COc1ncnc(C2CC2)c1-c1ncc2c(n1)N(Cc1ccc(-c3nc(C(F)(F)F)cn3C)c(F)c1)CC(=S)N2C [Compound 83, 2-(4-cyclopropyl-6-methoxypyrimidin-5-yl)-8-(3-fluoro-4-(1-methyl-4-(trifluoromethyl)-1H-imidazol-2-yl)benzyl)-5-methyl-7,8-dihydropteridine-6(5H)-thione]
MDA-MB-436 cells
  GI50: 23 nM
[2]
  IC50: 48.5 nM
